Laboratory results reported in patent US20230295235A1, “COMPOUNDS TARGETING ALPHA4-BETA7 INTEGRIN” (ZEALAND PHARMA A/S, priority 2020, published 2023).

Target: T1, (α4β7-negative Th memory cells) (Homo sapiens, UniProt P05556+P13612)
T1 construct: endogenous in cells; host or cells: human whole blood
Test: Competition assay: inhibition of biotinylated rhVCAM-1-Fc binding to α4β7-negative Th memory cells in whole blood (FACS receptor occupancy)
Type: cell-based
Details: single donor, 4 mM MnCl2, α4β7-negative Th memory cells, read-out: IC50, VCAM binding
Method: The compound of Example 1 was used in competition assay on CD4+ integrin α4+β7-|o memory T cells.
Receptor occupancy in primary cells was determined by measuring the amount of biotinylated human recombinant MAdCAM-1-Fc or human recombinant VCAM-1-Fc bound to selected cell populations using flow cytometry. Human recombinant MAdCAM-1-Fc or human recombinant VCAM-1-Fc (R&D systems) were biotinylated using commercially available reagents and protocol (Pierce).
Whole blood was collected from human donors in sodium heparin tubes. A volume of 100 µL of blood was incubated with the compound of Example 1 and 4 mM MnCl2 for 1 hour at room temperature. Cells were washed twice with 1 mL of 1X Dulbecco’s phosphate buffered saline (DPBS) calcium magnesium free (CMF) (ThermoFisher Scientific) and resuspended in 100 µL of DPBS CMF. […]
Fluorescence-activated cell sorting (FACS) data was acquired by electronic gating on the basis of forward versus side scatter. […] Cell population were determined using the following markers: CD45+, CD3+, CD4+,CD45RO+, CD49d+, integrin β7, biotinylated ligands.
Compound receptor occupancy was defined as the decrease in the number of integrin β7+ or integrin β7-lo cells binding biotinylated rhMAdCAM-1 or rhVCAM-1, respectively. Receptor occupancy was calculated with the following equation: […]

T1 sequence (P13612 34-1032): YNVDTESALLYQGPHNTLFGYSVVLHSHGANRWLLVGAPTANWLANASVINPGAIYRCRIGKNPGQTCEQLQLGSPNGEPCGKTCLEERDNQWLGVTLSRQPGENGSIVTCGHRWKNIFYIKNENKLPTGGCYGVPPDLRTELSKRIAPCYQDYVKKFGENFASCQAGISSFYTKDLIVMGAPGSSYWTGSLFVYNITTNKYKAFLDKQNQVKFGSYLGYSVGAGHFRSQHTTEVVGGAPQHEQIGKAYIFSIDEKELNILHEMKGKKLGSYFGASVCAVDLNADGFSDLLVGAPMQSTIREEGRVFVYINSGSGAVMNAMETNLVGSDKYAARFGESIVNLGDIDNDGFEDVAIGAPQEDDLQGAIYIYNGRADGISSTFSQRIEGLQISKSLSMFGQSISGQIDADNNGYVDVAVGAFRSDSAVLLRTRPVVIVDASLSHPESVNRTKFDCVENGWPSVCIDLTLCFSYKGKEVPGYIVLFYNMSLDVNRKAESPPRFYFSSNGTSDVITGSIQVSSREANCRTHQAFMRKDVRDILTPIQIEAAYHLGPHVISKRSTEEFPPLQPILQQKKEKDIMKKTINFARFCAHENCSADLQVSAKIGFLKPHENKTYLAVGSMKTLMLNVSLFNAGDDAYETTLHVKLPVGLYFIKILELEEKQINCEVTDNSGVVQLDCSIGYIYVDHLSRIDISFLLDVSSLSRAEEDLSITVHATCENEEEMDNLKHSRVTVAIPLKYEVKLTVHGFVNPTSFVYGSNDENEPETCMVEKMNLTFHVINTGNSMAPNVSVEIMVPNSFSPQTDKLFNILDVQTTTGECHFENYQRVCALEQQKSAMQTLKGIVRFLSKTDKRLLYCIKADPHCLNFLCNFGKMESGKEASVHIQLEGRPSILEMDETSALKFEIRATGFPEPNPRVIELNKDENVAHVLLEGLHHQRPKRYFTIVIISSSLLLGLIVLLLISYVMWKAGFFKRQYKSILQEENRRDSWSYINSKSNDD
T1 sequence (P05556 21-798): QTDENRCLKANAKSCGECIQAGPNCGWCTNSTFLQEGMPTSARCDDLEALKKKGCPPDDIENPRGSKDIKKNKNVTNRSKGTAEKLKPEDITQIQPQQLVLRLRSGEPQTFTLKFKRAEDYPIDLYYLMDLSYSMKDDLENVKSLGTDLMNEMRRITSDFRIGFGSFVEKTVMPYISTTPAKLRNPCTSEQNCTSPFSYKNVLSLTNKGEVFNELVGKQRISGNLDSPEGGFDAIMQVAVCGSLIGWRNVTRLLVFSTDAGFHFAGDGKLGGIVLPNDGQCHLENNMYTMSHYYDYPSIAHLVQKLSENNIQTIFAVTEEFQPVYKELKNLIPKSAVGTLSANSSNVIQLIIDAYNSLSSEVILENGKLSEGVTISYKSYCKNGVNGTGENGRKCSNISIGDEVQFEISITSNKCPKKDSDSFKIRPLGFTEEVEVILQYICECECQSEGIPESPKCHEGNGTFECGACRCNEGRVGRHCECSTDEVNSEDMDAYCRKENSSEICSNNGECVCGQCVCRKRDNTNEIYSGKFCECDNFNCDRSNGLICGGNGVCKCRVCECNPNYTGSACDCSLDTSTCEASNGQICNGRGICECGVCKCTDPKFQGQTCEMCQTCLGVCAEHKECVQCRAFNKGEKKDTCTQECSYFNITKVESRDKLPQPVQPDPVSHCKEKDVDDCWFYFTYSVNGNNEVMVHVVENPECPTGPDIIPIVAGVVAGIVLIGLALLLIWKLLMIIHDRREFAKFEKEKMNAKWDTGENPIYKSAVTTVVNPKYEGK

**Q.** How did the IC50 turn out when `CC(C)C[C@@H]1NC(=O)c2ccc(-c3ccc(N4CCN(C(=O)c5ccccc5-c5ccccc5C(=O)N5CCN(c6ccc(-c7ccc8cc7CNC(=O)[C@@H]7CCCN7[C@H](C(=O)NC(C)(C)C)[C@H](C)NC(=O)[C@H]([C@@H](C)O)NC(=O)[C@H](CC(=O)O)NC(=O)[C@H](CC(C)C)NC8=O)cc6)CC5)CC4)cc3)c(c2)CNC(=O)[C@@H]2CCCN2[C@H](C(=O)NC(C)(C)C)[C@H](C)NC(=O)[C@H]([C@@H](C)O)NC(=O)[C@H](CC(=O)O)NC1=O` [Example 1, 2,2′-((S,S,S,S,S,S,1^2,8S,11S,14S,17S,18S)-((([1,1′-Biphenyl]-2,2′-Dicarbonyl)-Bis(Piperazine-4,1-Diyl))Bis(4,1-Phenylene))Bis(18-(Tert-Butylcarbamoyl)-14-((R)-1-Hydroxyethyl)-8-Isobutyl-17-Methyl-2,6,9,12,15-Pentaoxo-3,7,10,13,16-Pentaaza-1(2,1)-Pyrrolidina-5(1,3)-Benzenacyclooctadecaphane-5^6,11-Diyl))-Diacetic Acid] was run?
**A.** The IC50 was about 600 nM.
